Species on record: Rattus norvegicus
Experiment: Open TG-GATES - Regimen: Single
Assay type: toxicity, organism-based, Sprague-Dawley
Parameters: regimen Single, gender Male, age 6 weeks
Conditions: in vivo, po, 30 mg/kg, route gavage, dose level High; for APTT / Bas / Eos / Fbg / Hb / Ht / Lym / MCH / MCHC / MCV / Mono / Neu / PT / Plat / RBC / Ret / WBC: tissue Blood; for KIDNEY_L / KIDNEY_R / KIDNEY_TOTAL: tissue Kidney; for LIVER: tissue Liver; for A/G / ALP / ALT / AST / BUN / CRE / Ca / Cl / DBIL / GLC / IP / K / LDH / Na / PL / RALB / TBIL / TC / TG / TP / gamma-GTP: tissue Plasma

SMILES: Cn1cnc([N+](=O)[O-])c1Sc1ncnc2nc[nH]c12 [AZATHIOPRINE]
- TERMINAL_BW (3 h): 191.2 g
- APTT (3 h): 22.3 s
- Bas (3 h): 0%
- Eos (3 h): 1%
- Fbg (3 h): 297.8 mg/dL
- Hb (3 h): 13.1 g/dL
- Ht (3 h): 39.1%
- Lym (3 h): 71.8%
- MCH (3 h): 21.6 pg
- MCHC (3 h): 33.5%
- MCV (3 h): 64.6 fL
- Mono (3 h): 1.8%
- Neu (3 h): 24.6%
- PT (3 h): 15.5 s
- Plat (3 h): 118.4 x10_4/uL
- RBC (3 h): 605.8 x10_4/ul
- Ret (3 h): 9.2%
- WBC (3 h): 56 x10_2/uL
- KIDNEY_L (3 h): 0.9 g
- KIDNEY_R (3 h): 0.9 g
- KIDNEY_TOTAL (3 h): 1.7 g
- LIVER (3 h): 8.5 g
- A/G (3 h): 1.2
- ALP (3 h): 1649.8 IU/L
- ALT (3 h): 41.6 IU/L
- AST (3 h): 73.2 IU/L
- BUN (3 h): 10.6 mg/dL
- CRE (3 h): 0.1 mg/dL
- Ca (3 h): 10.3 mg/dL
- Cl (3 h): 104.8 meq/L
- DBIL (3 h): 0.004 mg/dL
- GLC (3 h): 182.8 mg/dL
- IP (3 h): 9 mg/dL
- K (3 h): 4 meq/L
- LDH (3 h): 171.8 IU/L
- Na (3 h): 143.2 meq/L
- PL (3 h): 138.4 mg/dL
- RALB (3 h): 3 g/dL
- TBIL (3 h): 0.01 mg/dL
- TC (3 h): 80.4 mg/dL
- TG (3 h): 47.6 mg/dL
- TP (3 h): 5.4 g/dL
- gamma-GTP (3 h): 1 IU/L
- TERMINAL_BW (6 h): 192.3 g
- APTT (6 h): 21 s
- Bas (6 h): 0%
- Eos (6 h): 0.8%
- Fbg (6 h): 311.8 mg/dL
- Hb (6 h): 13.2 g/dL
- Ht (6 h): 39.6%
- Lym (6 h): 71.4%
- MCH (6 h): 21.5 pg
- MCHC (6 h): 33.3%
- MCV (6 h): 64.8 fL
- Mono (6 h): 2.2%
- Neu (6 h): 25%
- PT (6 h): 15.5 s
- Plat (6 h): 120.3 x10_4/uL
- RBC (6 h): 612.2 x10_4/ul
- Ret (6 h): 9%
- WBC (6 h): 54.6 x10_2/uL
- KIDNEY_L (6 h): 0.9 g
- KIDNEY_R (6 h): 0.9 g
- KIDNEY_TOTAL (6 h): 1.8 g
- LIVER (6 h): 7.9 g
- A/G (6 h): 1.1
- ALP (6 h): 1635.4 IU/L
- ALT (6 h): 36.4 IU/L
- AST (6 h): 69.8 IU/L
- BUN (6 h): 9.8 mg/dL
- CRE (6 h): 0.2 mg/dL
- Ca (6 h): 10.6 mg/dL
- Cl (6 h): 104.8 meq/L
- DBIL (6 h): 0.002 mg/dL
- GLC (6 h): 187.4 mg/dL
- IP (6 h): 9.1 mg/dL
- K (6 h): 4.4 meq/L
- LDH (6 h): 221 IU/L
- Na (6 h): 141.2 meq/L
- PL (6 h): 127.2 mg/dL
- RALB (6 h): 2.9 g/dL
- TBIL (6 h): 0.008 mg/dL
- TC (6 h): 73.4 mg/dL
- TG (6 h): 44.6 mg/dL
- TP (6 h): 5.5 g/dL
- gamma-GTP (6 h): 1 IU/L

From ChEMBL document CHEMBL3885861, “Open TG-GATES”
